We go through 8 molecules from ChEMBL document CHEMBL5506019 (J Med Chem, 2024).

Each structure is given as a SMILES string. Activity calls are given as the source filed them. No cut-off for these calls is given here.

Common to all, as to format: functional, cell-based
Experiment [1] addresses T1, 5-hydroxytryptamine receptor 2C (Homo sapiens) (UniProt P28335).
T1 sequence (whole entry): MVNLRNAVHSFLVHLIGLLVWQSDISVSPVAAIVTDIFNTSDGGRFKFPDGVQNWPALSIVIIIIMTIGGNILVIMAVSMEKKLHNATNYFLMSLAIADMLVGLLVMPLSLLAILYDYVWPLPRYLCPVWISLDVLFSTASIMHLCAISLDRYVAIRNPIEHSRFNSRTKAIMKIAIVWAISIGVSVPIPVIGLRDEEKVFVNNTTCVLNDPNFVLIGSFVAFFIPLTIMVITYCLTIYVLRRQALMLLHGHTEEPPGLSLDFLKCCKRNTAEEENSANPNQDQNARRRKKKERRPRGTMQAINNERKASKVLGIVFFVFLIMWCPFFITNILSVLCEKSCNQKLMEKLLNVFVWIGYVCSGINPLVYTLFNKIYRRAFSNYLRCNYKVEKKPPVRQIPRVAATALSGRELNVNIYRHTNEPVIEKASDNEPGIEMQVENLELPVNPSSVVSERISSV
Nature of the experiment: Agonist activity at human 5-HT2CR expressed in HEK293 cells upto 50 uM incubated upto 90 sec by Fluo-4 AM dye based Ca2+ imaging assay.

In experiment [2] the target is T2, 5-hydroxytryptamine receptor 2A (Homo sapiens, UniProt P28223). As to the kind of experiment: Agonist activity at human 5-HT2AR expressed in HEK293 cells upto 50 uM incubated upto 90 sec by Fluo-4 AM dye based Ca2+ imaging assay.
The target of experiment [3] is T2, 5-hydroxytryptamine receptor 2A. As to the kind of experiment: Agonist activity at human 5-HT2AR expressed in HEK293 cells incubated upto 90 sec by Fluo-4 AM dye based Ca2+ imaging assay.
Experiment [4] shares this target. Nature of the experiment: Agonist activity at human 5-HT2AR expressed in HEK293 cells assessed as maximal response incubated upto 90 sec by Fluo-4 AM dye based Ca2+ imaging assay relative to 5-HT. Conditions: filed as agonist.

T2 sequence (P28223 whole entry): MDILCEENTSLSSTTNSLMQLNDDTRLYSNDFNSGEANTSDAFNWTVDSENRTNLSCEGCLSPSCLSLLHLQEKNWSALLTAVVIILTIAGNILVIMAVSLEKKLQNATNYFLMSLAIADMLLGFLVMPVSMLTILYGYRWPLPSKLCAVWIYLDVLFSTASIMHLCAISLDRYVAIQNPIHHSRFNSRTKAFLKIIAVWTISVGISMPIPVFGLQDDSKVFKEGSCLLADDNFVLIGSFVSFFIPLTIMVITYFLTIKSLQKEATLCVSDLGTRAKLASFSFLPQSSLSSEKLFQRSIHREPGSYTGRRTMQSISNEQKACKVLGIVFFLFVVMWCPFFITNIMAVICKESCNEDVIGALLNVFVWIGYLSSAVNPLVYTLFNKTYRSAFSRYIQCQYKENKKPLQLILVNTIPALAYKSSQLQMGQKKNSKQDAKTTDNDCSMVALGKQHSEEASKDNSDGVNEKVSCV

As for `CCN1CCC[C@@H](c2cc(OC)c(C(F)(F)F)cc2OC)C1`, the result in experiment [1] was inactive.

Take `COc1ccc(OC)c(C2CCCNC2)c1` (racemic): the outcome in experiment [2] and in experiment [1] was inactive.

In the case of `CCOc1cc(C(F)(F)F)c(OCC)cc1C1CCCNC1` (stereo in doubt), the outcome in experiment [1] was inactive.

`COc1cc(C2CCCNC2)ccc1C(F)(F)F` (configuration not stated): in experiment [1], the result was inactive.

On to `CCN1CCC[C@H](c2cc(OC)c(C(F)(F)F)cc2OC)C1`, for which the outcome in experiment [2] and in experiment [1] was inactive.

One may read the EC50 as the concentration needed to bring the measured effect to its halfway point. Molecule `COc1cc(CCN)c(OC)cc1Br` registered a concentration giving a half-maximal response (EC50) in experiment [3] of 1.6 nM. Moreover, in experiment [4], the Rmax is 68%.

Take `FC(F)(F)c1ccc(C2CCCNC2)cc1` (racemic): the outcome in experiment [2] and in experiment [1] was inactive.

In the case of `CCOc1cc(C(F)(F)F)c(OCC)cc1C1CCCNC1` (stereo in doubt; 26(eu)), in experiment [1], the result was inactive.
